In patent publication US20020009713A1, “Methods for identifying modulators of neuronal growth” (priority 2000, published 2002):

How the values were obtained:
[1] = test system: rat sympathetic neurons; assay: MTT survival assay of cultured sympathetic neurons; assay type: cell-based; conditions: cultured in NGF or NGF+KCl
Protocol: Neurons were plated at low density (approximately one ganglion/well) in Nunclon™ 4-well culture dishes (Gibco BRL, Burlington, Ontario, Canada), coated with either rat tail collagen or poly-D-lysine and laminin (both from Collaborative Biomedical Products, Bedford, Mass.). Culture medium was UltraCulture (BioWhittaker, Walkersville, Md.), supplemented with 3% rat serum (Harlan Bioproducts, Madison, Wis.), 2 mM glutamine, 100 U/ml penicillin, 100 μg/ml streptomycin (all from BioWhittaker), and for the first two days, 7 μM cytosine arabinoside (Sigma-Aldrich Canada Ltd., Oakville, Ontario, Canada).
NGF-dependent neurons were selected by culturing sympathetic neurons for five days in the presence of 50 ng/ml NGF. Neurons were washed three times for one hour each in neurotrophin-free media, and were then fed with media containing 10 ng/ml NGF alone, or various concentrations of NGF plus either 100 ng/ml BDNF, 10 μg/ml αBDNF, or a 1:100 dilution of antiserum containing the p75^NTR antibody, REX (Weskamp and Reichardt, Neuron 6: 649-663, 1991). Each condition was repeated in triplicate, and analysis of survival was performed 48 hours later by using nonradioactive cell proliferation (MTT) assays (Celltitre 96; Promega; Belliveau et al., J. Cell Biol. 136:375-388, 1997). Specifically, 50 μl of the MTT reagent was added to 500 μl media in each well, and incubated for two hours at 37° C. After aspiration of the MTT containing media, 100 μl of a 0.065N HCl/isopropanol mixture was added to each well to lyse the cells, and colorimetric analysis was performed using an ELISA reader. For rat sympathetic neurons, 10 ng/ml NGF represents 100% survival, therefore all other values were considered to be relative to 10 ng/ml NGF. For mouse neurons, 7.5 ng/ml NGF represents 100% survival, and was thus considered to be the 100% survival threshold for neuritogenesis experiments.

[2] = test system: postnatal sympathetic neurons (SCG neurons); assay: Campenot chamber neurite growth assay; assay type: cell-based, rat; conditions: 50 μM U0126 with 10 ng/ml NGF
Protocol: We have devised a method for quantitatively assaying neurite growth. In this assay, the cell bodies of neurons are plated in Campenot chamber, a compartmentalized dish that has scratches or grooves in the matrix. The compartments are physically separated from each other by, for example, a Teflon® divider. The cells are placed in the central compartment. The scratches allow neurites to extend from the neuronal cell bodies and into adjacent compartments (FIG. 10A).
Neurites were induced to grow into HGF supplemented side compartments, and then visualized by staining against tubulin. Adenoviral-mediated expression of DN MEK in SCG neurons decreased neuritogenesis by 39% (FIGS. 10B, 10C).
We cultured postnatal sympathetic neurons in Campenot chambers. […] Addition of 50 μM U0126 in conjunction with 10 ng/ml NGF abrogates this growth while having no effects on cell survival (FIG. 15).

[3] = test system: sympathetic neurons; assay: Quantitative dot-blot of MAP2 association with microtubules and microtubule stability; assay type: cell-based, rat; conditions: neurons maintained in NGF or NGF+KCl
Protocol: FIG. 22 is a schematic illustration showing immuno-dot blot analysis of MAP2 association and tubulin dynamics in SCG neurons. […]
Microtubules were isolated from cultured sympathetic neurons, and the relative amount of MAP2 present per microgram tubulin was determined using quantitative dot-blot analysis. […] Depolarization enhances MAP2 levels and CamKII phosphorylation in sympathetic neurons. We performed western blot analysis of sympathetic neurons treated with 10 ng/ml NGF, 50 mM KCl, or NGF+KCl. Lysates containing equal amounts of protein were separated by SDS-PAGE, transferred to nitrocellulose, and then probed for MAP2, phosphorylated-CamKII, phosphorylated-ERKs, or total ERK protein. KCl increases the amount of MAP2 present in sympathetic neurons, and enhances CamKII phosphorylation.
Inhibition of either CamKII or MEK is sufficient to inhibit activitydependent dendrite formation. Immunocytochemical analysis for MAP2 on sympathetic neurons cultured in the presence of NGF+KCl with or without 10 um KN62, 75 um PD98059, 100 nM H-89 or 10 uM forskolin. […] In this study, microtubule stability was determined in sympathetic neurons maintained in NGF or NGF+KCl, and treated with selective pharmacological inhibitors.

[4] = test system: sympathetic neurons exogenously expressing TrkB; conditions: U0126 added with 25 ng/ml BDNF, dose-dependent
Protocol: We transduced postnatal sympathetic neurons with an adenovirus encoding TrkB. In Campenot dishes, these neurons grow processes into compartments containing 25 ng/ml BDNF.

## N#CC(=C(/N)Sc1ccccc1N)/C(C#N)=C(\N)Sc1ccccc1N [U0126]
[1]
  survival of sympathetic neurons (MTT): None of these compounds perturbs
[2]
  NGF-induced neuronal growth into side compartment: abrogates
  cell survival: no effects
[3]
  KCl-induced increase in microtubule stability: completely inhibit
[4]
  TrkB-mediated neuronal growth: dramatically reduced
